Results taken from the NIST ThermoML archive (doi:10.1021/je700072a).
± gives the expanded uncertainty stated by the source.

Columns and labels:
[1] = molar heat capacity at constant pressure; conditions: 101.33 kPa, Crystal
[2] = Crystal; visual observation

NC[C@H]1CC[C@H](C(=O)O)CC1 [trans-4-(aminomethyl)cyclohexanecarboxylic acid]
molar heat capacity at constant pressure ([1]; 82.12 K): 74.7 ± 1.5 J/K/mol | molar heat capacity at constant pressure ([1]; 86.25 K): 76.89 ± 1.5 J/K/mol | molar heat capacity at constant pressure ([1]; 90.28 K): 79.76 ± 1.6 J/K/mol | molar heat capacity at constant pressure ([1]; 94.31 K): 82.4 ± 1.6 J/K/mol | molar heat capacity at constant pressure ([1]; 98.35 K): 85 ± 1.7 J/K/mol | molar heat capacity at constant pressure ([1]; 102.41 K): 87.81 ± 1.7 J/K/mol | molar heat capacity at constant pressure ([1]; 106.49 K): 90.49 ± 1.7 J/K/mol | molar heat capacity at constant pressure ([1]; 110.6 K): 93.05 ± 1.8 J/K/mol | molar heat capacity at constant pressure ([1]; 114.62 K): 95.54 ± 1.8 J/K/mol | molar heat capacity at constant pressure ([1]; 118.68 K): 98.24 ± 1.8 J/K/mol | molar heat capacity at constant pressure ([1]; 122.78 K): 100.67 ± 1.9 J/K/mol | molar heat capacity at constant pressure ([1]; 126.81 K): 103.29 ± 1.9 J/K/mol | molar heat capacity at constant pressure ([1]; 130.9 K): 105.64 ± 1.9 J/K/mol | molar heat capacity at constant pressure ([1]; 135.04 K): 107.88 ± 2 J/K/mol | molar heat capacity at constant pressure ([1]; 139.12 K): 109.84 ± 2 J/K/mol | molar heat capacity at constant pressure ([1]; 143.27 K): 111.62 ± 2 J/K/mol | molar heat capacity at constant pressure ([1]; 147.47 K): 113.47 ± 2 J/K/mol | molar heat capacity at constant pressure ([1]; 151.62 K): 115.25 ± 2 J/K/mol | molar heat capacity at constant pressure ([1]; 155.73 K): 116.97 ± 2.1 J/K/mol | molar heat capacity at constant pressure ([1]; 159.91 K): 118.97 ± 2.1 J/K/mol | molar heat capacity at constant pressure ([1]; 164.15 K): 120.5 ± 2.1 J/K/mol | molar heat capacity at constant pressure ([1]; 168.36 K): 122.02 ± 2.1 J/K/mol | molar heat capacity at constant pressure ([1]; 172.53 K): 123.18 ± 2.1 J/K/mol | molar heat capacity at constant pressure ([1]; 176.78 K): 124.4 ± 2.2 J/K/mol | molar heat capacity at constant pressure ([1]; 181.09 K): 125.84 ± 2.2 J/K/mol | molar heat capacity at constant pressure ([1]; 185.38 K): 127.19 ± 2.2 J/K/mol | molar heat capacity at constant pressure ([1]; 189.63 K): 128.43 ± 2.2 J/K/mol | molar heat capacity at constant pressure ([1]; 193.83 K): 129.9 ± 2.2 J/K/mol | molar heat capacity at constant pressure ([1]; 198.09 K): 130.84 ± 2.2 J/K/mol | molar heat capacity at constant pressure ([1]; 202.43 K): 132.24 ± 2.3 J/K/mol | molar heat capacity at constant pressure ([1]; 206.76 K): 133.38 ± 2.3 J/K/mol | molar heat capacity at constant pressure ([1]; 211.06 K): 134.92 ± 2.3 J/K/mol | molar heat capacity at constant pressure ([1]; 215.33 K): 136.11 ± 2.3 J/K/mol | molar heat capacity at constant pressure ([1]; 219.57 K): 138 ± 2.3 J/K/mol | molar heat capacity at constant pressure ([1]; 223.88 K): 139.22 ± 2.4 J/K/mol | molar heat capacity at constant pressure ([1]; 228.26 K): 141.19 ± 2.4 J/K/mol | molar heat capacity at constant pressure ([1]; 232.59 K): 143.17 ± 2.4 J/K/mol | molar heat capacity at constant pressure ([1]; 236.84 K): 145.38 ± 2.4 J/K/mol | molar heat capacity at constant pressure ([1]; 240.99 K): 147.84 ± 2.5 J/K/mol | molar heat capacity at constant pressure ([1]; 245.16 K): 149.97 ± 2.5 J/K/mol | molar heat capacity at constant pressure ([1]; 249.36 K): 153.29 ± 2.5 J/K/mol | molar heat capacity at constant pressure ([1]; 253.5 K): 156.23 ± 2.6 J/K/mol | molar heat capacity at constant pressure ([1]; 257.64 K): 159.56 ± 2.6 J/K/mol | molar heat capacity at constant pressure ([1]; 261.72 K): 162.66 ± 2.6 J/K/mol | molar heat capacity at constant pressure ([1]; 265.9 K): 166 ± 2.7 J/K/mol | molar heat capacity at constant pressure ([1]; 270.14 K): 168.94 ± 2.7 J/K/mol | molar heat capacity at constant pressure ([1]; 274.32 K): 172.81 ± 2.8 J/K/mol | molar heat capacity at constant pressure ([1]; 278.44 K): 176.02 ± 2.8 J/K/mol | molar heat capacity at constant pressure ([1]; 282.51 K): 180.3 ± 2.9 J/K/mol | molar heat capacity at constant pressure ([1]; 286.62 K): 184.12 ± 2.9 J/K/mol | molar heat capacity at constant pressure ([1]; 290.75 K): 187.46 ± 2.9 J/K/mol | molar heat capacity at constant pressure ([1]; 294.85 K): 190.4 ± 3 J/K/mol | molar heat capacity at constant pressure ([1]; 298.94 K): 194.15 ± 3 J/K/mol | molar heat capacity at constant pressure ([1]; 303.01 K): 197.05 ± 3.1 J/K/mol | molar heat capacity at constant pressure ([1]; 307.17 K): 200.02 ± 3.1 J/K/mol | molar heat capacity at constant pressure ([1]; 311.37 K): 202.88 ± 3.1 J/K/mol | molar heat capacity at constant pressure ([1]; 315.53 K): 205.54 ± 3.2 J/K/mol | molar heat capacity at constant pressure ([1]; 319.67 K): 209.32 ± 3.2 J/K/mol | molar heat capacity at constant pressure ([1]; 323.79 K): 212.66 ± 3.3 J/K/mol | molar heat capacity at constant pressure ([1]; 327.88 K): 215.68 ± 3.3 J/K/mol | molar heat capacity at constant pressure ([1]; 331.96 K): 219.46 ± 3.3 J/K/mol | molar heat capacity at constant pressure ([1]; 336.09 K): 222.93 ± 3.4 J/K/mol | molar heat capacity at constant pressure ([1]; 340.27 K): 226.39 ± 3.4 J/K/mol | molar heat capacity at constant pressure ([1]; 344.44 K): 229.61 ± 3.5 J/K/mol | molar heat capacity at constant pressure ([1]; 348.6 K): 233.13 ± 3.5 J/K/mol | molar heat capacity at constant pressure ([1]; 352.73 K): 236.69 ± 3.5 J/K/mol | molar heat capacity at constant pressure ([1]; 356.85 K): 239.65 ± 3.6 J/K/mol | molar heat capacity at constant pressure ([1]; 360.96 K): 242.26 ± 3.6 J/K/mol | molar heat capacity at constant pressure ([1]; 365.13 K): 245.3 ± 3.7 J/K/mol | molar heat capacity at constant pressure ([1]; 369.37 K): 248.57 ± 3.7 J/K/mol | molar heat capacity at constant pressure ([1]; 373.63 K): 252.41 ± 3.8 J/K/mol | molar heat capacity at constant pressure ([1]; 377.94 K): 254.98 ± 3.8 J/K/mol | Normal melting temperature [2]: 249.00 ± 4 °C
